In article PMC5862616 (Oncotarget, 2018):
Where “and” joins values, the source holds several entries; their conditions need not be identical. Equal values may be shown once. Read-outs that look alike come from different tables or passages of the source.

How the values were obtained:
[1] = system: MKNK1/2 (p-eIF4E S209) in KM-12 cells; assay: Western blot of p-eIF4E S209 in KM-12 cells; type: cell-based
Description: (§1) 20 μg NTRK1 fusion confirmation
(§2) T20 (ThermoScientific, Rockford, IL) for 30 minutes. MiniPrep cat# R2051 following manufacturer ’s protocol. […]
(§3) (1:2000) (Sigma-Aldrich), HRP-conjugated mouse or primers. The primer sequences are TPM3_Ex3B_F5:
(§4) Chalfont, UK). All western blots were developed using Ex12_R5: […]. PCR was […]

[2] = target: T1, wild-type TPM3-NTRK1 in NIH-3T3 cells (Homo sapiens, UniProt P04629+P06753); assay: Immunoblot of p-NTRK1 in NIH-3T3 cells, wild-type TPM3-NTRK1; type: cell-based; conditions: 0.2 μM and 0.5 μM, 4 hours
T1 construct: expressed in transfected cells
T1 sequence (P06753+P04629 fused): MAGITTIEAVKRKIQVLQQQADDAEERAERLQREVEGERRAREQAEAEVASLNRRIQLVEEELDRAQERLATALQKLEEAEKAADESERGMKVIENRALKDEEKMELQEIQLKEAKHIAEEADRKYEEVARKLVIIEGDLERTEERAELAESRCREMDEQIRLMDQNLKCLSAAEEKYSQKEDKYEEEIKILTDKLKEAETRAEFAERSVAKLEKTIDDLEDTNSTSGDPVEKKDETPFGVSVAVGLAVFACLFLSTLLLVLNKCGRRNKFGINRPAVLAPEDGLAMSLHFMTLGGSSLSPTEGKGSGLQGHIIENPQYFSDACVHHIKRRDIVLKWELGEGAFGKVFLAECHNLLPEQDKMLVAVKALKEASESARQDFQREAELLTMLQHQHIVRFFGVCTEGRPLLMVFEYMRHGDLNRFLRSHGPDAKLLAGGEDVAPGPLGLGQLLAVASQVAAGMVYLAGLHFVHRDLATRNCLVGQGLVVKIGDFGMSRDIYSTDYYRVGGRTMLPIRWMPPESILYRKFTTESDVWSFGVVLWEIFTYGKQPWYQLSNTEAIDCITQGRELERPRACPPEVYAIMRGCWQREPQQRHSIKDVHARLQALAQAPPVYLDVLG

MO-91 cells (ETV6-NTRK3) = conditions: read-out: IC50 proliferation of MO-91 cells; in vitro; cited from earlier work
MO-91 xenograft tumors = system: MO-91 xenograft tumors; parameters: method as in PMID 23811600; conditions: 50 mg/kg once daily; cited from earlier work
[3] = system: KM-12 xenograft tumors (TPM3-NTRK1); assay: KM-12 xenograft tumor model; type: in vivo, athymic nude mice
[4] = target: T2, mutant G595R TPM3-NTRK1 in NIH-3T3 cells (Homo sapiens, UniProt P04629+P06753, G595R); assay: Immunoblot of p-NTRK1 in NIH-3T3 cells, G595R TPM3-NTRK1; type: cell-based; conditions: 0.2 μM and 0.5 μM, 4 hours
T2 construct: expressed in transfected cells
T2 sequence (P04629 510-796 G595R limits assumed, one chain of several): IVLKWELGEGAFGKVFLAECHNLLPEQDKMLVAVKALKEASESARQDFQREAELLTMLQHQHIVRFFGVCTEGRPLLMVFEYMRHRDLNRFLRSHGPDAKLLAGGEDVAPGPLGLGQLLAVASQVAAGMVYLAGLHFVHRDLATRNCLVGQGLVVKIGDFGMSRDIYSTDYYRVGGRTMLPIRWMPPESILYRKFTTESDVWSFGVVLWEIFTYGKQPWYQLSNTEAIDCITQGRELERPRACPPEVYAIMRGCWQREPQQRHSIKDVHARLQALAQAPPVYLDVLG

[5] = system: p-eIF4E in NIH-3T3 cells expressing TPM3-NTRK1; assay: Immunoblot of p-eIF4E in NIH-3T3 TPM3-NTRK1 cells; type: cell-based
Description: 350 μg/ml hygromycin selection for 14 days. Each stable CO). Percent Ki67+ area was calculated as the percentage
wild-type or mutated NTRK1. Control vector containing positive. […]
as §1
T20 (ThermoScientific, Rockford, IL) for 30 minutes. MiniPrep cat# R2051 following manufacturer ’s protocol.
A forward primer upstream of the
as §3, §4

[6] = system: EL1989 PDX tumors (TPM3-NTRK1); assay: Colorectal carcinoma PDX model EL1989; conditions: mouse, in vivo
KM-12 cells [7] = assay: KM-12 anchorage dependent cell proliferation (CellTiter-Glo); type: cell-based; conditions: Homo sapiens, KM12, 72 h, read-out: IC50 KM-12 cell proliferation (anchorage dependent)
[8] = system: p-ERK (MAPK 42/44) in KM-12 cells; assay: Western blot of phosphorylated MAPK 42/44 (ERK) in KM-12 cells; type: cell-based
Description: as §1, §2, §3, §4

KM-12 cells [9] = assay: KM-12 anchorage independent growth in alginate; type: cell-based; conditions: Homo sapiens, KM12, 72 h, read-out: IC50 KM-12 anchorage independent growth

p-NTRK1 (Y490) signaling, wild-type TPM3-NTRK1, in words [2] | Animal weights, KM-12 xenograft study ([3]; merestinib 24 mg/kg once daily, crizotinib 25 mg/kg twice daily, measured twice weekly, relative to vehicle) | p-NTRK1, mutant G595R TPM3-NTRK1, in words [4] | SMILES | p-eIF4E reduction (MKNK1/2 inhibition, in words) [1] | IC50 (MO-91 cells (ETV6-NTRK3)) [nM] | Effect on MO-91 xenograft tumors (MO-91 xenograft tumors) | T/C, KM-12 xenograft ([3]; mouse, in vivo) [%] | p-eIF4E reduction, in words [5] | % Necrosis/Mucin, individual animal [6] | % Necrosis/Mucin, mean per group [6] [%] | T/C, EL1989 PDX [6] [%] | IC50 (KM-12 cells [7]) [nM] | p-ERK inhibition (in words) [8] | IC50 (KM-12 cells [9]) [nM] | p-eIF4E reduction (MKNK1/2 inhibition, in words) ([1]; KM-12 cells, 2 hours, western blot, b12: 100, 500, 1000 nM) | Concentration giving total inhibition of phosphorylation of MAPK 42/44 (ERK) ([8]; KM-12 cells, 2 hours, 3.9-1000 nM, western blot) [nM]
– | – | – | CN1CCN(c2ccc(C(=O)Nc3n[nH]c4ccc(Cc5cc(F)cc(F)c5)cc34)c(NC3CCOCC3)c2)CC1 [Entrectinib, reference compound] | small reduction of p-eIF4E | – | – | – | – | – | – | – | – | – | – | – | –
reduced | no significant weight alteration | little effect | C[C@@H](Oc1cc(-c2cnn(C3CCNCC3)c2)cnc1N)c1c(Cl)ccc(F)c1Cl [Crizotinib, reference compound] | small reduction of p-eIF4E | 10 | induced tumor regression | 39.5 | did not show reduction in p-eIF4E | 80% (2×) and 20% and 95% and 30% and 10% | 50 | 13.5 | 92 | dose dependent inhibition | 276 | – | –
reduced | – | partial p-NTRK1 inhibition | O=C(Nc1cnn2ccc(N3CCC[C@@H]3c3cc(F)ccc3F)nc12)N1CC[C@H](O)C1 [Larotrectinib, reference compound] | – | – | – | – | – | – | – | – | – | – | – | small reduction of p-eIF4E | 15.6
